Experimental data from ChEMBL document CHEMBL4622896, “Enzymatic biosynthesis and biological evaluation of novel 17-AAG glucoside as potential anti-cancer agents” (Bioorg Med Chem Lett, 2020).
Values after ≈ are worked out from the molar mass of the structure shown. Active and inactive are the calls of the source. The rule behind the calls is not given here.

Experiments:
[1] = Solubility of the compound in water; type: physicochemical
[2] = Solubility of the compound in water relative to 17-AAG; type: physicochemical; conditions: buffer
CNE2Z [3] = experiment: Antiproliferative activity against human CNE2Z cells assessed as cell growth inhibition by MTT assay; type: functional, cell-based
SMMC-7721 = experiment: Antiproliferative activity against human SMMC7721 cells assessed as cell growth inhibition by MTT assay; type: functional, cell-based
HepG2 = experiment: Antiproliferative activity against human HepG2 cells assessed as cell growth inhibition by MTT assay; type: functional, cell-based
MDA-MB-231 = experiment: Antiproliferative activity against human MDA-MB-231 cells assessed as cell growth inhibition by MTT assay; type: functional, cell-based
SW480 = experiment: Antiproliferative activity against human SW480 cells assessed as cell growth inhibition by MTT assay; type: functional, cell-based
Heat shock protein HSP90 [4] = target: T1, Heat shock protein HSP90 (Homo sapiens, UniProt P07900+P08238); experiment: Inhibition of HSP90 ATPase activity (unknown origin) malachite-green phosphate assay; type: protein assay
Heat shock protein HSP90 [5] = target: T1, Heat shock protein HSP90; experiment: Inhibition of HSP90 in human CNE2Z cells assessed as downregulation of Akt expression at 10 to 40 uM by Western blot analysis; type: cell-based
Heat shock protein HSP90 [6] = target: T1, Heat shock protein HSP90; experiment: Inhibition of HSP90 in human CNE2Z cells assessed as downregulation of Her-2 expression at 10 to 40 uM by Western blot analysis; type: cell-based
Heat shock protein HSP90 [7] = target: T1, Heat shock protein HSP90; experiment: Inhibition of HSP90 in human CNE2Z cells assessed as downregulation of c-Raf expression at 10 to 40 uM by Western blot analysis; type: cell-based
Heat shock protein HSP90 [8] = target: T1, Heat shock protein HSP90; experiment: Inhibition of HSP90 in human CNE2Z cells assessed as downregulation of Bcl2 expression at 10 to 40 uM by Western blot analysis; type: cell-based
Heat shock protein HSP90 [9] = target: T1, Heat shock protein HSP90; experiment: Inhibition of HSP90 in human CNE2Z cells assessed as downregulation of HIF-1alpha expression at 10 to 40 uM by Western blot analysis; type: cell-based
CNE2Z [10] = experiment: Antitumor activity against human CNE2Z cells xenografted in nude mouse assessed as reduction in tumor volume at 1 mg/kg, ip administered for 19 days relative to control; type: functional; conditions: 456 h
[11] = Toxicity in nude mouse xenografted with human CNE2Z cells assessed as effect on body weight at 1 mg/kg, ip administered for 19 days; type: organism-based; conditions: in vivo, 456 h
[12] = Toxicity in nude mouse xenografted with human CNE2Z cells assessed as effect on liver at 1 mg/kg, ip administered for 19 days by hematoxylin and eosin staining based assay; type: organism-based; conditions: in vivo, 456 h
[13] = Toxicity in nude mouse xenografted with human CNE2Z cells assessed as effect on lung at 1 mg/kg, ip administered for 19 days by hematoxylin and eosin staining based assay; type: organism-based; conditions: in vivo, 456 h
[14] = Toxicity in nude mouse xenografted with human CNE2Z cells assessed as effect on kidney at 1 mg/kg, ip administered for 19 days by hematoxylin and eosin staining based assay; type: organism-based; conditions: in vivo, 456 h
[15] = Toxicity in nude mouse xenografted with human CNE2Z cells assessed as effect on body weight at 5 mg/kg, ip administered for 19 days; type: organism-based; conditions: in vivo, 456 h

For `C=CCNC1=C2C[C@@H](C)C[C@H](OC)[C@H](O[C@@H]3O[C@H](CO)[C@@H](O)[C@H](O)[C@H]3O)[C@@H](C)/C=C(\C)[C@H](OC(N)=O)[C@@H](OC)/C=C\C=C(/C)C(=O)NC(=CC1=O)C2=O` (stereo in doubt), the solubility [1] was 661 µM (≈ 494 µg/mL), the Ratio [2] was 10.5 and the IC50 (CNE2Z [3]) was 9200 nM. The IC50 (SMMC-7721) was 5260 nM, the IC50 (HepG2) was 6280 nM and the IC50 (MDA-MB-231) was 28500 nM. For the same molecule, the IC50 (SW480) was 6130 nM, the IC50 (Heat shock protein HSP90 [4]) was > 100000 nM and the inhibition (Heat shock protein HSP90 [5]) was “Active”. The inhibition (Heat shock protein HSP90 [6]) was “Active”, the inhibition (Heat shock protein HSP90 [7]) was “Active” and the inhibition (Heat shock protein HSP90 [8]) was “Active”. The inhibition (Heat shock protein HSP90 [9]) was “Active”, the inhibition in vivo at 1 mg/kg (CNE2Z [10]) was 75.5% and the Activity [11] was “Non-Toxic”. The Activity [12] was “Non-Toxic”, the Activity [13] was “Non-Toxic” and the Activity [14] was “Non-Toxic”.
`COC1=C2C[C@@H](C)C[C@H](OC)[C@H](O)[C@@H](C)/C=C(\C)[C@H](OC(N)=O)[C@@H](OC)/C=C\C=C(/C)C(=O)NC(=CC1=O)C2=O` [GELDANAMYCIN] gave an IC50 (CNE2Z [3]) of 310 nM, an IC50 (SMMC-7721) of 110 nM and an IC50 (HepG2) of 1740 nM. For the same molecule, the IC50 (MDA-MB-231) was 620 nM and the IC50 (SW480) was 510 nM.
Work on `C=CCNC1=C2C[C@@H](C)C[C@H](OC)[C@H](O)[C@@H](C)/C=C(\C)[C@H](OC(N)=O)[C@@H](OC)/C=C\C=C(/C)C(=O)NC(=CC1=O)C2=O` [TANESPIMYCIN] yielded a solubility [1] of 63 µM (≈ 36.9 µg/mL), an IC50 (CNE2Z [3]) of 8410 nM and an IC50 (SMMC-7721) of 190 nM. The IC50 (HepG2) was 320 nM, the IC50 (MDA-MB-231) was 1790 nM and the IC50 (SW480) was 280 nM. The Activity [15] was “Non-Toxic”.
